# Measured values from patent publication US11951094B2, “TLR2 modulator compounds, pharmaceutical compositions and uses thereof” (Axial Therapeutics, Inc., priority 2020, dated 2024).
# Biological target: TLR2 (Homo sapiens, UniProt O60603)
# Experiment: TLR2 agonist screening assay, HEK-Blue TLR2 reporter cell line (NF-kB-driven SEAP, absorbance at 600 nm)
# Type: cell-based
# Set-up: host or cells: HEK-293 (HEK-Blue TLR2 reporter cell line)
# Details: HEK-Blue TLR2 reporter cells, agonist mode; average of all runs (Table 4)
# Summary of the method: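 EC50 values come from dilution series of agonist on TLR2-transfected HEK-293 reporter cells carrying an NF-kB-SEAP construct. Cells sat overnight with compound in substrate-containing Detection medium at 1% DMSO, and secreted phosphatase activity was quantified as absorbance at 600 nm.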
# Chain of TLR2 (O60603 21-784): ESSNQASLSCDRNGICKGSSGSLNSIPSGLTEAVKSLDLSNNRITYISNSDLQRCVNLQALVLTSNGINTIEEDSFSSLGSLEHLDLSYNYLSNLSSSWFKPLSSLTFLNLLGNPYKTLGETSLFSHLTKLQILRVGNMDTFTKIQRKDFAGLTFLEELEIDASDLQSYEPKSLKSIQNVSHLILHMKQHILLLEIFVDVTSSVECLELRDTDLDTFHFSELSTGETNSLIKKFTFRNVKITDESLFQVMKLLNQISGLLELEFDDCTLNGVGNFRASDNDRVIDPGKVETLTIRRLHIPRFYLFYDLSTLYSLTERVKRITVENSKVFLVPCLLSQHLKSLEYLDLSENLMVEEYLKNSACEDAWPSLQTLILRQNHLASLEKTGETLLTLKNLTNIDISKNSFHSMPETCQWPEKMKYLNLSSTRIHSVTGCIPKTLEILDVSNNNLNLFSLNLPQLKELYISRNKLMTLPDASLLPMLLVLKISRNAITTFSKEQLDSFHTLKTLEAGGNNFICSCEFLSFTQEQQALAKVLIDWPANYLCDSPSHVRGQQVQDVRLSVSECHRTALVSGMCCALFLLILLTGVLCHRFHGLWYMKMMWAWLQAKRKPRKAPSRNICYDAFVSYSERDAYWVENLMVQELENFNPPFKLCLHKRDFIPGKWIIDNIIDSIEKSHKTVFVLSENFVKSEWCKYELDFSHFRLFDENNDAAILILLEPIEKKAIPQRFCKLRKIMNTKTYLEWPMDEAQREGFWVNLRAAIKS
row,SMILES,EC50 [nM]
1,"CCCCCCCCCCCCCCNC(=O)C1CC(=O)N(Cc2ccc(C(=O)N3C[C@@H](C(=O)N[C@H]4C[C@@H]4c4ccccc4)[C@H](C(=O)N[C@H]4C[C@@H]4c4ccccc4)C3)cc2)C1 (stereo partly drawn) [Compound 100, (3S,4S)-1-(4-((2-oxo-4-(tetradecylcarbamoyl)pyrrolidin-1-yl)methyl)benzoyl)-N3,N4-bis((1S,2R)-2-phenylcyclopropyl)pyrrolidine-3,4-dicarboxamide]",> 1000
2,"CCCCCCNC(=O)C[C@@H](NC(=O)c1ccc(C(=O)N2C[C@@H](C(=O)N[C@H]3C[C@@H]3c3ccccc3)[C@H](C(=O)N[C@H]3C[C@@H]3c3ccccc3)C2)cc1)C(=O)NCCCCCC [Compound 117, (3S,4S)-1-(4-(((R)-1,4-bis(hexylamino)-1,4-dioxobutan-2-yl)carbamoyl)benzoyl)-N3,N4-bis((1S,2R)-2-phenylcyclopropyl) pyrrolidine-3,4-dicarboxamide]",> 1000
3,"CCCCCCNC(=O)[C@@H](CNC(=O)CCCCCC)NC(=O)c1ccc(C(=O)N2C[C@@H](C(=O)N[C@H]3C[C@@H]3c3ccccc3)[C@H](C(=O)N[C@H]3C[C@@H]3c3ccccc3)C2)cc1 [Compound 118, (3S,4S)-1-(4-(((R)-3-heptanamido-1-(hexylamino)-1-oxopropan-2-yl)carbamoyl)benzoyl)-N3,N4-bis((1S,2R)-2-phenylcyclopropyl) pyrrolidine-3,4-dicarboxamide]",> 1000
4,"CCCCCCNC(=O)[C@@H](CCNC(=O)CCCCCC)NC(=O)c1ccc(C(=O)N2C[C@@H](C(=O)N[C@H]3C[C@@H]3c3ccccc3)[C@H](C(=O)N[C@H]3C[C@@H]3c3ccccc3)C2)cc1 [Compound 119, (3S,4S)-1-(4-(((R)-4-heptanamido-1-(hexylamino)-1-oxobutan-2-yl)carbamoyl)benzoyl)-N3,N4-bis((1S,2R)-2-phenylcyclopropyl)pyrrolidine-3,4-dicarboxamide]",> 1000
5,"CCCCCCNC(=O)[C@@H](CCNC(=O)c1ccc(C(=O)N2C[C@@H](C(=O)N[C@H]3C[C@@H]3c3ccccc3)[C@H](C(=O)N[C@H]3C[C@@H]3c3ccccc3)C2)cc1)NC(=O)CCCCCC [Compound 120, (3S,4S)-1-(4-(((R)-3-heptanamido-4-(hexylamino)-4-oxobutyl)carbamoyl)benzoyl)-N3,N4-bis((1S,2R)-2-phenylcyclopropyl)pyrrolidine-3,4-dicarboxamide]",> 1000
6,"CCCCCCCC(=O)N1CCN(Cc2ccc(C(=O)N3C[C@@H](C(=O)N[C@H]4C[C@@H]4c4ccccc4)[C@H](C(=O)N[C@H]4C[C@@H]4c4ccccc4)C3)cc2)C[C@H]1C(=O)NCCCCCC [Compound 122, (3S,4S)-1-(4-(((S)-3-(hexylcarbamoyl)-4-octanoylpiperazin-1-yl)methyl)benzoyl)-N3,N4-bis((1S,2R)-2-phenylcyclopropyl) pyrrolidine-3,4-dicarboxamide]",> 1000
7,"CCCCCCCCCCCCCCC(=O)N[C@H]1CCCN(C(=O)c2ccc(C(=O)N3C[C@@H](C(=O)N[C@H]4C[C@@H]4c4ccccc4)[C@H](C(=O)N[C@H]4C[C@@H]4c4ccccc4)C3)cc2)C1 [Compound 124, (3S,4S)-1-(4-((S)-3-pentadecanamidopiperidine-1-carbonyl)benzoyl)-N3,N4-bis((1S,2R)-2-phenylcyclopropyl)pyrrolidine-3,4-dicarboxamide]",> 1000
8,"CCCCCCCCCCCCCCC(=O)N1CCC[C@H](NC(=O)c2ccc(C(=O)N3C[C@@H](C(=O)N[C@H]4C[C@@H]4c4ccccc4)[C@H](C(=O)N[C@H]4C[C@@H]4c4ccccc4)C3)cc2)C1 [Compound 125, (3S,4S)-1-(4-(((S)-1-pentadecanoylpiperidin-3-yl)carbamoyl)benzoyl)-N3,N4-bis((1S,2R)-2-phenylcyclopropyl)pyrrolidine-3,4-dicarboxamide]",> 1000
9,"CCCCCCCCCCCCCCC(=O)N[C@@H]1CCN(Cc2ccc(C(=O)N3C[C@@H](C(=O)N[C@H]4C[C@@H]4c4ccccc4)[C@H](C(=O)N[C@H]4C[C@@H]4c4ccccc4)C3)cc2)C1=O [Compound 126, (3S,4S)-1-(4-(((R)-2-oxo-3-pentadecanamidopyrrolidin-1-yl)methyl)benzoyl)-N3,N4-bis((1S,2R)-2-phenylcyclopropyl)pyrrolidine-3,4-dicarboxamide]",> 1000
10,"CCCCCCC(=O)N[C@@H](CNC(=O)c1ccc(C(=O)N2C[C@@H](C(=O)N[C@H]3C[C@@H]3c3ccccc3)[C@H](C(=O)N[C@H]3C[C@@H]3c3ccccc3)C2)cc1)C(=O)NCc1ccc(F)cc1 [Compound 128, (3S,4S)-1-(4-(((S)-3-((4-fluorobenzyl)amino)-2-heptanamido-3-oxopropyl)carbamoyl)benzoyl)-N3,N4-bis((1S,2R)-2-phenylcyclopropyl)pyrrolidine-3,4-dicarboxamide]",> 1000
11,"CCCCCCC(=O)N[C@@H](CNC(=O)c1ccc(C(=O)N2C[C@@H](C(=O)N[C@H]3C[C@@H]3c3ccccc3)[C@H](C(=O)N[C@H]3C[C@@H]3c3ccccc3)C2)cc1)C(=O)NCCCC [Compound 131, (3S,4S)-1-(4-(((S)-3-(butylamino)-2-heptanamido-3-oxopropyl)carbamoyl)benzoyl)-N3,N4-bis((1S,2R)-2-phenylcyclopropyl)pyrrolidine-3,4-dicarboxamide]",351 to 1000
12,"CCCCCCCCCCCCCCC(=O)N[C@H]1CCN(Cc2ccc(C(=O)N3C[C@@H](C(=O)N[C@H]4C[C@@H]4c4ccccc4)[C@H](C(=O)N[C@H]4C[C@@H]4c4ccccc4)C3)cc2)C1=O [Compound 133, (3S,4S)-1-(4-(((S)-2-oxo-3-pentadecanamidopyrrolidin-1-yl)methyl)benzoyl)-N3,N4-bis((1S,2R)-2-phenylcyclopropyl)pyrrolidine-3,4-dicarboxamide]",> 1000
13,"CCCCCCCCCCCCCCNC(=O)C[C@@H]1CCCN1C(=O)c1ccc(C(=O)N2C[C@@H](C(=O)N[C@H]3C[C@@H]3c3ccccc3)[C@H](C(=O)N[C@H]3C[C@@H]3c3ccccc3)C2)cc1 [Compound 135, (3S,4S)-1-(4-((S)-2-(2-oxo-2-(tetradecylamino)ethyl)pyrrolidine-1-carbonyl)benzoyl)-N3,N4-bis((1S,2R)-2-phenylcyclopropyl) pyrrolidine-3,4-dicarboxamide]",> 1000

# The remaining lines, values ahead:
row,EC50 [nM],SMILES
1,351 to 1000,"CCCCCCCC(=O)N1CCN(Cc2ccc(C(=O)N3C[C@@H](C(=O)N[C@H]4C[C@@H]4c4ccccc4)[C@H](C(=O)N[C@H]4C[C@@H]4c4ccccc4)C3)cc2)C[C@@H]1C(=O)NCCCCCC [Compound 121, (3S,4S)-1-(4-(((R)-3-(hexylcarbamoyl)-4-octanoylpiperazin-1-yl)methyl)benzoyl)-N3,N4-bis((1S,2R)-2-phenylcyclopropyl)pyrrolidine-3,4-dicarboxamide]"
2,0.1 to 50,"CCCCCCCCCCCCCCNC(=O)[C@H]1CCCN(C(=O)c2ccc(C(=O)N3C[C@@H](C(=O)N[C@H]4C[C@@H]4c4ccccc4)[C@H](C(=O)N[C@H]4C[C@@H]4c4ccccc4)C3)cc2)C1 [Compound 123, (3S,4S)—N3,N4-bis((1S,2R)-2-phenylcyclopropyl)-1-(4-((S)-3-(tetradecylcarbamoyl)piperidine-1-carbonyl)benzoyl)pyrrolidine-3,4-dicarboxamide]"
3,51 to 350,"CCCCCCCCCCCCCCNC(=O)C[C@H]1CCCN1C(=O)c1ccc(C(=O)N2C[C@@H](C(=O)N[C@H]3C[C@@H]3c3ccccc3)[C@H](C(=O)N[C@H]3C[C@@H]3c3ccccc3)C2)cc1 [Compound 127, (3S,4S)-1-(4-((R)-2-(2-oxo-2-(tetradecylamino)ethyl)pyrrolidine-1-carbonyl)benzoyl)-N3,N4-bis((1S,2R)-2-phenylcyclopropyl) pyrrolidine-3,4-dicarboxamide]"
4,51 to 350,"CCCCCCC(=O)N[C@@H](CNC(=O)c1ccc(C(=O)N2C[C@@H](C(=O)N[C@H]3C[C@@H]3c3ccccc3)[C@H](C(=O)N[C@H]3C[C@@H]3c3ccccc3)C2)cc1)C(=O)NCCc1ccc(F)cc1 [Compound 129, (3S,4S)-1-(4-(((S)-3-((4-fluorophenethyl)amino)-2-heptanamido-3-oxopropyl)carbamoyl)benzoyl)-N3,N4-bis((1S,2R)-2-phenylcyclopropyl)pyrrolidine-3,4-dicarboxamide]"
5,351 to 1000,"CCCCCCNC(=O)[C@H](CNC(=O)c1ccc(C(=O)N2C[C@@H](C(=O)N[C@H]3C[C@@H]3c3ccccc3)[C@H](C(=O)N[C@H]3C[C@@H]3c3ccccc3)C2)cc1)NC(=O)CCCC [Compound 130, (3S,4S)-1-(4-(((S)-3-(hexylamino)-3-oxo-2-pentanamidopropyl)carbamoyl)benzoyl)-N3,N4-bis((1S,2R)-2-phenylcyclopropyl)pyrrolidine-3,4-dicarboxamide]"
6,51 to 350,"CCCCCCCCCCCCCCNC(=O)[C@H]1CN(C(c2ccc(C(=O)N3C[C@@H](C(=O)N[C@H]4C[C@@H]4c4ccccc4)[C@H](C(=O)N[C@H]4C[C@@H]4c4ccccc4)C3)cc2)C(F)(F)F)CCN1C (stereo partly drawn) [Compound 132, (3S,4S)—N3,N4-bis((1S,2R)-2-phenylcyclopropyl)-1-(4-(2,2,2-trifluoro-1-((R)-4-methyl-3-(tetradecylcarbamoyl)piperazin-1-yl)ethyl)benzoyl)pyrrolidine-3,4-dicarboxamide]"
7,0.1 to 50,CCCCCCCCCCCCCCCN1CCCC(NC(=O)c2ccc(C(=O)N3C[C@@H](C(=O)N[C@H]4C[C@@H]4c4ccccc4)[C@H](C(=O)N[C@H]4C[C@@H]4c4ccccc4)C3)cc2)C1=O (stereo partly drawn) [Compound 136]
8,51 to 350,"CCCCCCNC(=O)[C@H](CNC(=O)c1ccc(C(=O)N2C[C@@H](C(=O)N[C@H]3C[C@@H]3c3ccccc3)[C@H](C(=O)N[C@H]3C[C@@H]3c3ccccc3)C2)cc1)NC(=O)NCCCCC [Compound 137, (3S,4S)-1-(4-(((S)-3-(hexylamino)-3-oxo-2-(3-pentylureido)propyl)carbamoyl)benzoyl)-N3,N4-bis((1S,2R)-2-phenylcyclopropyl)pyrrolidine-3,4-dicarboxamide]"
